# pEC50, pIC50: −log10 of the molar value. Read-outs that look alike come from different tables or passages of the source.
# Columns and labels:
# [1] = test system: human precision cut lung slices from donors with pulmonary fibrosis; assay: Fibrotic marker mRNA (qPCR) in cryopreserved PCLS from donors with pulmonary fibrosis; format: cell-based; settings: PIPE-791, 6 days, 6 donors
# [2] = Rat plasma pharmacokinetics after oral dose; format: in vivo; settings: 10 mg/kg oral, n=2
# Protocol: This distinct, long-lived pharmacokinetic profile would support a dosing frequency less than that of other LPAR1 antagonists described in the literature.
# Plasma and lung homogenate samples were thawed and further diluted as necessary with naïve mouse plasma or naïve lung homogenate matrix. […] Plasma drug concentrations were calculated by comparison of peak area ratios of analyte/IS to the prepared calibration standards using Sciex Analyst software.
# [3] = test system: normal, non-fibrotic human PCLS; assay: Fibrotic marker mRNA (qPCR) in normal PCLS; format: cell-based; settings: n=5 donors
# Protocol: Precision cut lung slices were obtained from Anabios (San Diego, CA) and collected in accordance with their ethics policy (https://anabios.com/ethics-statement/). Donor demographics are available in Additional File 1. Slices were thawed as per vendor instructions. Briefly, PCLS were thawed at 37 °C then transferred to media consisting of DMEM/F12, Antibiotic-Antimytotic, and Penicillin-Streptomycin. PCLS were gently rinsed then transferred to a larger dish. A small tissue sample was excised with a scalpel for immunohistochemistry and qPCR characterization. […] Final concentration of DMSO was 0.1%. Media and compound were replaced every two days for a total of 6 days. At the end of the experiment, slices were collected and snap frozen. Quantitative PCR: RNA was extracted using RNEasy columns. RNA was reverse transcribed using qScript XLT per manufacturer’s instructions. Genes of interest were assessed by qPCR using Perfecta SYBR Green on a StepOne Plus Thermocycler (ABI). Parameters were as follows: 95 °C 30 s, then 45 cycles of 95 °C for 5 s and 60 °C for 30 s.
# [4] = test system: sandwich-cultured human hepatocytes; assay: Cholestatic drug-induced liver injury (c-DILI) assay; format: cell-based; settings: 30 µM, 24 h, in the presence or absence of a toxic concentration of bile acids
# Protocol: This study was conducted at BioIVT (Durham, […]). Sandwich-cultured human hepatocytes (SCHH) were prepared on BioCoat 96-well Cell Culture Plate from Corning (Cat # 354407) using Transporter Certified™ cryopreserved hepatocytes from BioIVT (Cat # M00995-TCERT) and maintained in freshly prepared QualGro™ Hepatocyte Culture Medium. […] Following 24 h of exposure, the culture plates were harvested for adenosine triphosphate (ATP) and lactate dehydrogenase (LDH) analysis. Cellular ATP content was determined using the CellTiter-Glo® Assay Kit and LDH leakage into the culture media was determined using the CytoTox-ONE® Assay Kit, both obtained from Promega, per manufacturer’s instructions.
# [5] = test system: primary human lung fibroblasts; assay: LPA-induced chemotaxis assay; format: cell-based; settings: 1 µM LPA chemoattractant; 6 h preincubation; read-out: IC50 inhibition of fibroblast chemotaxis
# Protocol: Chemotaxis assay: Primary human lung fibroblasts were obtained from ATCC (Cat # PCS-201-020) and cultured in fibroblast media as per ATCC directions. Fibroblasts were serum starved overnight in basal fibroblast media. Cells were then lifted using CellStripper, centrifuged at 500 x g for 10 min, then resuspended in basal media. […] The receiving chamber contained 1 µM LPA. Chemotaxis was quantified as per Cell Biolabs, Inc instructions on a Flexstation 3 (Molecular Devices).
# [6] = molecular target: T1, LPAR1 (Mus musculus, UniProt P61793); assay: In vivo lung receptor occupancy with [3H]-PIPE-497; settings: for pEC50: read-out: lung receptor occupancy EC50 (plasma concentration)
# T1 construct: from tissue; host or cells: lung of female C57BL6/N mice, dosed in vivo
# T1 sequence (P61793 whole entry): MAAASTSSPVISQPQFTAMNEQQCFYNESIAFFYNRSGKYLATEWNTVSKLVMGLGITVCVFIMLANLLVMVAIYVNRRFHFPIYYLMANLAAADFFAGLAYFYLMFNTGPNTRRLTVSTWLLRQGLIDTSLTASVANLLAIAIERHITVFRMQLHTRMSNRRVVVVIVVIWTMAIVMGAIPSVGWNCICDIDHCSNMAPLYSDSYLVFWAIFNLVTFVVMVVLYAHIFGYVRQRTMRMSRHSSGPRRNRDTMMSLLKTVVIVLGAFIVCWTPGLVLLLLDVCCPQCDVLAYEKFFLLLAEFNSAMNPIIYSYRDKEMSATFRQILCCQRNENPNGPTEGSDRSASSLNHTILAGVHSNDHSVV
# Protocol: [^3H]-PIPE-497 was diluted to 9.8 µCi/mL in saline and administered via IV injection to the lateral tail vein at a dose volume of 5 mL/kg. Five minutes following radioligand administration, mice were euthanized by decapitation, trunk blood collected into K3EDTA tubes and stored on wet ice, each lung rapidly dissected, weighed and placed into a 5 mL polypropylene tube. Tissues were diluted with a 10x volume of ice-cold binding buffer (50 mM HEPES, 100 mM NaCl2, 2 mM EDTA). Lungs were then homogenized (25,000 rpm, 7 s). 300 µL of homogenate was filtered over Whatman GF/B filters (GE Life Sciences, Marlborough, MA) which had been pre-wetted with 0.5% polyethyleneimine prior to loading onto the Hoefer vacuum manifold. Filters were washed once by applying 3 mL ice-cold wash buffer (50 mM Tris, 154 mM NaCl, 0.05% Tween 20) to the manifold for a total of 2 washes. […] Washed filters were removed from the manifold and air dried. Following completion of filtration of all samples, uncapped scintillation vials were placed into an oven (~ 40–50 °C) for ~ 30 min to ensure complete drying. Five (5) mL Ultima Gold F scintillation fluid was added to each tube. Tubes were capped, gently agitated, and dark equilibrated for 30 min then read on a Beckman LS6500 liquid scintillation counter for tritium disntegrations per minute measurements. After all samples were collected, dissected, and filtered, the previously collected blood in K3EDTA tubes was centrifuged (1450 x g, 10 min, 4 °C) to separate plasma.
# [7] = test system: bleomycin-induced macrophage activation; assay: Intratracheal bleomycin, therapeutic dosing: BAL macrophage size and IL-1β; format: in vivo, mouse; settings: 3 mg/kg oral once a day from day 3 after bleomycin
# Protocol: To further support our ex vivo macrophage findings, we used a therapeutic paradigm where mice were challenged in vivo with intratracheal instillation of bleomycin. […] The fluid was centrifuged and supernatant and cell fractions analyzed.
# Mice were dosed until day 14 at which point BAL fluid was collected. BAL was centrifuged and cells were transferred to culture plates and incubated overnight at 37 °C. Plates were spun down and supernatant and cell pellet analysed separately. Supernatant was analyzed for IL-1β as described for mouse above. The cell pellet for each condition was plated at 3 × 10^3 cells/well in black clear bottom 96-well plates. After settling, cells were fixed in formalin and immunostained against CD68 and detected with a donkey anti-rat Alexa 488 conjugated antibody. Image acquisition and analysis was performed using a Nikon A1R confocal microscope and NIS Elements software.
# [8] = test system: primary human alveolar macrophages; assay: LPS-induced IL-1β release; format: cell-based
# Protocol: Human macrophages were cultured in Human Alveolar Macrophage Media per manufacturer’s instructions. […] Cells were then co-stimulated with 500 ng/mL LPS for 4 h. Plates were spun down and supernatant collected for analysis using a human IL-1β ELISA kit per manufacturer’s directions.
# [9] = once per day for 4 days (steady state), 3 h after last dose
smiles,measurement,setting,value
COc1ccc(NC(=O)N(c2ccccc2C(C)C)C2CCC(C(=O)O)CC2)c(OC(F)F)n1 (centres unmarked) [PIPE-791],slice health as measured by LDH in the media,[1],no significant effect on slice health
same,plasma unbound concentration at 24 h post-dose versus calcium mobilization IC50,[2],exceeded the in vitro calcium mobilization IC50
same,"expression of fibrotic marker transcripts (COL1A1, COL3A1, SERPINE1, TIMP1, LPAR1)",[3],did not alter the expression of any of the fibrotic marker transcripts tested
same,ATP content (cell viability),[4],nor a decrease in ATP content
same,lactate dehydrogenase leakage (cell death),[4],neither an appreciable increase in lactate dehydrogenase
same,pIC50,[5],8.82
same,increase in potency when dosed 3 versus 24 h prior to radioligand,[6]; in vivo receptor occupancy,20 fold
same,lung receptor occupancy ED50,[6]; [9],0.1 mg/kg
same,pEC50,[6]; [9],7.74
same,EC90,"[6]; once per day for 4 days (steady state), read-out: lung receptor occupancy EC90 (total plasma concentration)",50 nM
same,lung receptor occupancy ED50,[6]; single oral dose 3 h prior to radioligand,0.5 mg/kg
same,lung receptor occupancy ED50,[6]; single oral dose 24 h prior to radioligand,0.09 mg/kg
same,pEC50,"[6]; single oral dose, 3 h",7.10
same,radiotracer displacement (LPAR1 receptor occupancy) in lung,"[6]; single oral dose, 3 h post dose",Significant radiotracer displacement (LPAR1 receptor occupancy) was observed at 3 mg/kg
same,pEC50,"[6]; single oral dose, 24 h",8.40
same,radiotracer displacement (LPAR1 receptor occupancy) in lung,"[6]; single oral dose, 24 h post dose",significant occupancy was observed at both 0.3 and 3 mg/kg
same,reduction of IL-1β in BAL supernatant,[7],69.2%
same,reduction of macrophage cell size (CD68 area),[7]; BAL cells,56%
same,LPS-induced IL-1β in culture media,"[8]; 500 ng/mL LPS 4 h, LPS alone 4.3-fold increase",inhibited to baseline levels
same,"IL-1β in culture media, compound alone",[8]; no LPS,No increase was observed
